Results reported in US10414811B2, “Protease-resistant lipidated GLP-1 analogs” (MEDIMMUNE LIMITED, priority 2015, dated 2019).
Read-outs that look alike come from different tables or passages of the source. Numbered stars: 1 amine (or outer) side, 2 acyl side, 3 side chain; on linkers, the order of the positions; unused ones are H or OH. Square brackets hold non-standard residues; d marks the D form. Side chains are listed from the residue outwards. Peptide text beside a SMILES is read from it. * marks the point of attachment. γGlu = O=C(O)[C@H](CCC(=O)[*:2])N[*:1]; αMeF = C[C@](N)(Cc1ccccc1)C(=O)O; αMeK = C[C@](N)(CCCCN)C(=O)O; Lauroyl = CCCCCCCCCCCC(=O)*; αMeS = C[C@](N)(CO)C(=O)O; AEEA = NCCOCCOCC(=O)O; Aib = CC(C)(N)C(=O)O

Legend:
trypsin = target: T1, trypsin (Sus scrofa, UniProt P00761); test: Proteolytic resistance to trypsin (% remaining intact peptide, RP-HPLC AUC); format: in vitro ADME; conditions: pig, porcine pancreatic trypsin, 37° C., pH 7.8, read-out: Percentage remaining intact peptide (AUC by RP-HPLC) upon incubation with trypsin
T1 construct: purchased Sigma T7409
T1 sequence (P00761 9-231): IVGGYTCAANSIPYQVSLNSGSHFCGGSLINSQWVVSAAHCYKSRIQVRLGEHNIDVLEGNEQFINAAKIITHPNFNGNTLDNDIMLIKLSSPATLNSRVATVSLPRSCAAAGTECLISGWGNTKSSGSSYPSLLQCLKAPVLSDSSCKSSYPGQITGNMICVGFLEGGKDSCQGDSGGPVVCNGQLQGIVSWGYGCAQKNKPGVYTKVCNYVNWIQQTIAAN
From the text: Ratio enzyme (units):peptide (μmoles)˜1:11. […] Ratio enzyme (units):peptide (μmoles)˜1.2:1.

[1] = target: T2, human GLP-1 receptor (GLP-1R) (Homo sapiens, UniProt P43220); test: cAMP assay, human GLP-1R cells; format: cell-based; conditions: bis-lipidated peptides
T2 construct: expressed in transfected cells
T2 sequence (P43220 24-463): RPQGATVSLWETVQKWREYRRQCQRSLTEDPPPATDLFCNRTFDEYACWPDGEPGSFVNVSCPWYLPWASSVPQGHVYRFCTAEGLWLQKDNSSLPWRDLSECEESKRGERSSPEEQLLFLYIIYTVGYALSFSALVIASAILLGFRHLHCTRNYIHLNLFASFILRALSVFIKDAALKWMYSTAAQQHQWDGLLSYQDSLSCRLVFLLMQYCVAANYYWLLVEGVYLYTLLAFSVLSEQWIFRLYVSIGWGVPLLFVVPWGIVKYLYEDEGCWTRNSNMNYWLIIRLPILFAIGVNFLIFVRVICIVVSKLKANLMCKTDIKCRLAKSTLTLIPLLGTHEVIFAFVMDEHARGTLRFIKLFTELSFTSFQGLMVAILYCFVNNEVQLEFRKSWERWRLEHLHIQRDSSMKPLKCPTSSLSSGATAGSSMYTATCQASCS
Summary of the method: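 Peptide-stimulated cAMP measured by two-step HTRF after a 30 min room-temperature incubation with receptor-expressing cells (hGLP-1R, hGIPR at 1×10^5 cells/ml; hGCGR at 2×10^5 cells/ml). Duplicate dilutions; EC50 from 4-parameter logistic fit of % Delta F.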

[2] = Proteolytic resistance to fasted-state simulated intestinal fluid (FASSIF/Pancreatin); format: in vitro ADME; conditions: 37° C., read-out: Percentage remaining intact peptide (AUC by RP-HPLC) upon incubation with fasted-state simulated intestinal fluid (FASSIF/P)
Protocol: A fresh suspension of FASSIF/P (Fasted-State Simulated Intestinal Fluid+USP Pancreatin®) was prepared according to that described by Galia, Nicolaides, Hörter, Löbenberg, Reppas and Dressman: Pharm. Res. 15 (1998) 698-705. The resulting preparation is proteolytically equivalent to ˜375 units/mL (375 kU/L) and was used immediately without storage. Peptides for evaluation (1.0 mg, ˜250 nmoles) were initially dissolved in pre-warmed FASSIF without Pancreatin® (200 μL) to which was added pre-warmed fresh FASSIF/Pancreatin® (100 μL) to initiate potential digestion. Following momentary vortexing of the Eppendorf reaction tube the mixture was incubated at 37° C. in a thermostatic waterbath for the duration of the experiment. 25 μL aliquots of the co-incubated peptide-enzyme mixture were periodically withdrawn (t=0, 5 m, 10 m, 15 m, 30 m, 1 h, 2 h) and quenched immediately by addition to a solution of 10% TFA in 1:1 water/acetonitrile (75 μL) to arrest proteolytic activity.

pepsin = target: T3, pepsin (Sus scrofa, UniProt P00791); test: Proteolytic resistance to pepsin (% remaining intact peptide, RP-HPLC AUC); format: in vitro ADME; conditions: pig, porcine pepsin, 37° C., pH 2.0, read-out: Percentage remaining intact peptide (AUC by RP-HPLC) upon incubation with pepsin
T3 construct: purchased Sigma P7012
T3 sequence (P00791 60-385): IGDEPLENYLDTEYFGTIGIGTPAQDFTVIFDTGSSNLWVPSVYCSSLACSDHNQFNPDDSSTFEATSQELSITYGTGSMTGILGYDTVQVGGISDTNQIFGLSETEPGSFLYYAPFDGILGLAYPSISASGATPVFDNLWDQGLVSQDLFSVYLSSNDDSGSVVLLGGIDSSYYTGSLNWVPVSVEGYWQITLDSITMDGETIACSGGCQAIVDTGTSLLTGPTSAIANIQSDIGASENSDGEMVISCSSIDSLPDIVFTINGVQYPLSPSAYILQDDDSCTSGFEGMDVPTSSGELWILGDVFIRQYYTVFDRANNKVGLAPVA
Protocol: Lyophilized porcine […] pepsin (Sigma: P7012) was reconstituted to afford a solution of 200 μg/mL (˜500 units/mL) in assay buffer (0.1 M HCl, pH 2.0) to give the enzyme stock solution. […] Ratio enzyme (units):peptide (μmoles)˜1:6. […] Ratio enzyme (units):peptide (μmoles)˜2:1.
Lyophilized porcine […] pepsin (Sigma: P7012) was reconstituted to 200 μg/mL (˜500 units/mL) in assay buffer (1.0 M HCl, pH 2.0) to give the enzyme stock solution.

Neprilysin = target: T4, Neprilysin (Homo sapiens, UniProt P08473); test: Proteolytic resistance to neprilysin (% remaining peptide, RP-HPLC AUC); format: in vitro ADME; conditions: 37° C., pH 8.3
T4 construct: purchased R&D Systems 1182-ZNC-010
T4 sequence (P08473 whole entry): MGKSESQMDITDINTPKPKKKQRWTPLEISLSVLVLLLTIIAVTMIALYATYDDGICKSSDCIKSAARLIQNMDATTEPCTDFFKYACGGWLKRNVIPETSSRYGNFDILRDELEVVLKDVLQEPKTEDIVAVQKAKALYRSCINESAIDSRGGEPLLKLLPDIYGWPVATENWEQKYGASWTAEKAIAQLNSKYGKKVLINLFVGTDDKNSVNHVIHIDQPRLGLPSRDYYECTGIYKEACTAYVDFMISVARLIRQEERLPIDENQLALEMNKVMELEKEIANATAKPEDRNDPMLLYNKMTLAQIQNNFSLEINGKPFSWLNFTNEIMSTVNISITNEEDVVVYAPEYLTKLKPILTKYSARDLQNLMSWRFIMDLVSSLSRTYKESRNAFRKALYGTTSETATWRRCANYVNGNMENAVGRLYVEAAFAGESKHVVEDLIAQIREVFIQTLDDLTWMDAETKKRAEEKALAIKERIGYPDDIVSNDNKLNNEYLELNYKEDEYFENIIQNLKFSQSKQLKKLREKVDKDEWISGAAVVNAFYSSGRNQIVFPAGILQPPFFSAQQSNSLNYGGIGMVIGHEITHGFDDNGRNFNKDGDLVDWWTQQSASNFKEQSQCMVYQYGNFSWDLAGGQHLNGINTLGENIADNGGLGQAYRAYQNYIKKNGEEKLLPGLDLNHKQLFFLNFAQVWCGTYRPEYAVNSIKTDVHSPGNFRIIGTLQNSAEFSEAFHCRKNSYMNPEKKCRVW
Protocol: Ratio enzyme (units):peptide (μmoles)˜1:33. […] Ratio enzyme (units):peptide (μmoles)˜1:2.5.
15 μL aliquots (˜15 μg initial peptide) of the peptide-enzyme mixture were periodically withdrawn (t=0, 30 mins, 1 hr, 2 hr, 4 hr, 8 hr, 24 hr) and quenched immediately by addition to an equal volume (15 μL) of 5% TFA (v/v) in 1:1 water/acetonitrile to arrest proteolytic activity. 20 μL aliquots (˜10 μg initial peptide) were analyzed by LC/MS and/or analytical RP-HPLC as follows: LC/MS method: Agilent Polaris C8-A column (4.6×100 mm, 3 micron) eluted with a linear binary gradient of 10-90% MeCN (0.1% TFA v/v) in water (0.1% TFA v/v) over 30 mins at 1.5 mL min-1 at ambient temperature with detection by both UV absorption at 210 nm and ionization using a Waters 3100 mass detector (ESI+ mode). Peptide fragments deriving from enzymatic hydrolysis were identified by molecular weight, allowing location of the site of cleavage. Analytical RP-HPLC method: Agilent Polaris C8-A column (4.6×100 mm, 3 micron) eluted with a linear binary gradient of 10-90% MeCN (0.1% TFA v/v) in water (0.1% TFA v/v) over either 10 or 15 mins at 1.5 mL min^−1 at 40° C. with detection by UV absorption at 210 nm. Manual integration (AUC) allowed estimation of remaining intact peptide over the time course of the experiment.
25 μL aliquots (˜6 μg initial peptide) were analyzed by LC/MS and/or analytical RP-HPLC as follows: LC/MS method: Agilent Polaris C8-A column (4.6×100 mm, 3 micron) eluted with a linear binary gradient of 10-90% MeCN (0.1% TFA v/v) in water (0.1% TFA v/v) over 30 mins at 1.5 mL min^−1 at ambient temperature with detection by both UV absorption at 210 nm and ionization using a Waters 3100 mass detector (ESP mode). Peptide fragments deriving from enzymatic hydrolysis were identified by molecular weight, allowing location of the site of cleavage. Analytical RP-HPLC method: Agilent Polaris C8-A column (4.6×100 mm, 3 micron) eluted with a linear binary gradient of 10-90% MeCN (0.1% TFA v/v) in water (0.1% TFA v/v) over either 10 or 15 mins at 1.5 mL min^−1 at 40° C. with detection by UV absorption at 210 nm. Manual integration (AUC) allowed estimation of remaining intact peptide over the time course of the experiment.

GLP-1R (INS1e assay) = target: T5, GLP-1R (INS1e assay) (Rattus norvegicus, UniProt P32301); test: INS1e assay, cAMP activity at GLP-1R; format: cell-based; conditions: bis-lipidated peptides
T5 construct: endogenous in cells; host or cells: INS-1E cells
T5 sequence (P32301 22-463): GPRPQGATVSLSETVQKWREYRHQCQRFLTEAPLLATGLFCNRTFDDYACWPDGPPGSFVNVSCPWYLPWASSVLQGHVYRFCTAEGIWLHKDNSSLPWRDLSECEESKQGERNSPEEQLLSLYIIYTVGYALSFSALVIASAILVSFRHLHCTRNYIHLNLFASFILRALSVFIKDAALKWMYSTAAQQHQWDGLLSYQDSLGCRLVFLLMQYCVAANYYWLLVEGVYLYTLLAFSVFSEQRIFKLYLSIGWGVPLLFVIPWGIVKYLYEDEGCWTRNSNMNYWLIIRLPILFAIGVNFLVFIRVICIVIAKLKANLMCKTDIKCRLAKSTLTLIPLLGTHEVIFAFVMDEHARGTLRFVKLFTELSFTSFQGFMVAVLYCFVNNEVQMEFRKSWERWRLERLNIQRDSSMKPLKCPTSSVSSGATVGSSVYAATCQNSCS
Summary of the method: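 It pairs cAMP-d2 acceptor with anti-cAMP cryptate donor, both prepared 1/20 in conjugate/lysis buffer, applied as a two-step protocol.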

remaining at 0.5 h (trypsin; t = 30 min): 98.9%
remaining at 1 h (trypsin; t = 1 hr): 97.2%
remaining at 2 h (trypsin; t = 2 hr): 94.8%
remaining at 4 h (trypsin; t = 4 hr): 89.8%
remaining at 8 h (trypsin; t = 8 hr): 85%
EC50 ([1]; mean of n1 and n2, read-out: Primary assay EC50 Mean pM GLP-1R): 1.2 pM
EC50 ([1]; replicate n2, read-out: Primary assay EC50 GLP-1R n2): 1.45 pM
remaining at 5 min, […] ([2]; t = 5 m): 93.1%
remaining at 1 h, […] ([2]; t = 1 h): 35.1%
remaining at 0.5 h (pepsin; t = 30 min): 57.7%
remaining at 1 h (pepsin; t = 1 hr): 36%
remaining at 2 h (pepsin; t = 2 hr): 14.3%
remaining at 4 h (pepsin; t = 4 hr): 5.1%
remaining at 8 h (pepsin; t = 8 hr): 1.1%
remaining at 24 h (pepsin; t = 24 hr): 0%
remaining at 0.5 h (Neprilysin; recombinant neprilysin, t = 30 min): 98.3%
remaining at 1 h (Neprilysin; recombinant neprilysin, t = 1 hr): 99.5%
remaining at 2 h (Neprilysin; recombinant neprilysin, t = 2 hr): 97.7%
remaining at 4 h (Neprilysin; recombinant neprilysin, t = 4 hr): 92.3%
remaining at 8 h (Neprilysin; recombinant neprilysin, t = 8 hr): 91.2%
remaining at 24 h (Neprilysin; recombinant neprilysin, t = 24 hr, read-out: Percentage remaining peptide (AUC at specified time-point by RP-HPLC) upon incubation with neprilysin, t = 24 hr): 91.9%
Percentage remaining peptide (AUC at specified time-point by RP-HPLC) upon incubation with neprilysin, t = 0 (Neprilysin; t = 0): 100%
EC50 (GLP-1R (INS1e assay); mean of n1 and n2, read-out: INS1e assay EC50 Mean pM GLP-1R): 132 pM
EC50 (GLP-1R (INS1e assay); replicate n1, read-out: INS1e assay EC50 GLP-1R n1): 120 pM
EC50 (GLP-1R (INS1e assay); replicate n2, read-out: INS1e assay EC50 GLP-1R n2): 144 pM
Structure (SMILES): CCCCCCCCCCCC(=O)N[C@@H](CCC(=O)NCCOCCOCC(=O)NCCOCCOCC(=O)NCCCC[C@H](NC(=O)[C@H](C)NC(=O)[C@@H](NC(=O)[C@H](Cc1ccccc1)NC(=O)[C@H](CCC(=O)O)NC(=O)[C@](C)(CCCCN)NC(=O)[C@H](C)NC(=O)[C@H](C)NC(=O)[C@H](CCC(=O)O)NC(=O)CNC(=O)[C@H](CCC(=O)O)NC(=O)[C@H](CC(C)C)NC(=O)[C@H](CCCCNC(=O)COCCOCCNC(=O)COCCOCCNC(=O)CC[C@H](NC(=O)CCCCCCCCCCC)C(=O)O)NC(=O)[C@H](CO)NC(=O)[C@](C)(CO)NC(=O)[C@@H](NC(=O)[C@H](CC(=O)O)NC(=O)[C@H](CO)NC(=O)[C@@H](NC(=O)[C@](C)(Cc1ccccc1)NC(=O)[C@H](CO)NC(=O)CNC(=O)[C@H](CCC(=O)O)NC(=O)C(C)(C)NC(=O)[C@@H](N)Cc1c[nH]cn1)[C@@H](C)O)C(C)C)[C@@H](C)CC)C(=O)N[C@H](C(=O)N[C@H](C(=O)N[C@@H](CCC(=O)O)C(=O)NCC(=O)NCC(N)=O)C(C)C)C(C)C)C(=O)O [compound 263] (H-H[Aib]EGS[αMeF]TSDV[αMeS]SK([AEEA-AEEA-γGlu-Lauroyl])LEGEAA[αMeK]EFIAK([AEEA-AEEA-γGlu-Lauroyl])VVEGG-NH2)
